Assay results taken from the supplement of paper PMC10307832.

Experiments:
Test in all cases: relative viability (nuclei count vs DMSO), 5 days (fraction); higher = more cells survive
[1] = compound: C1COCCN1CC2=CC(=O)C(=CO2)OCCCCCSC3=C4C=CC(=CC4=NC=C3)C(F)(F)F [EHT 1864] + CC(=O)c1c(C)c2cnc(Nc3ccc(N4CCNCC4)cn3)nc2n(C2CCCC2)c1=O [Palbociclib] (partner 0.5 µM)
How it was run: (§1)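 Relative viability divides the nuclei count in treated wells by that in vehicle wells. Lung cancer cell lines were seeded in 1536-well plates, dosed by pin tool the next day, and fixed and stained after 5 days in one step with final 0.05% Triton X-100, 1% formaldehyde and 1 ug/ml Hoechst. Dosing was a single drug or a fixed anchor-drug dose plus five library-drug doses (not always all listed) in √10 steps, and values are medians of duplicate plates imaged at 4×.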

[2] = compound: C1COCCN1CC2=CC(=O)C(=CO2)OCCCCCSC3=C4C=CC(=CC4=NC=C3)C(F)(F)F [EHT 1864] + CCNC(=O)c1noc(-c2cc(C(C)C)c(O)cc2O)c1-c1ccc(CN2CCOCC2)cc1 [Luminespib] (partner 0.01 µM)
How it was run: as §1

[3] = compound: C1COCCN1CC2=CC(=O)C(=CO2)OCCCCCSC3=C4C=CC(=CC4=NC=C3)C(F)(F)F [EHT 1864] + COc1cccc2cc(-c3nc([C@H]4CC[C@H](C(=O)O)CC4)n4ncnc(N)c34)[nH]c12 [OSI-027] (partner 0.5 µM)
How it was run: as §1

[4] = compound: C1COCCN1CC2=CC(=O)C(=CO2)OCCCCCSC3=C4C=CC(=CC4=NC=C3)C(F)(F)F [EHT 1864] + CS(=O)(=O)N1CCN(Cc2cc3nc(-c4cccc5[nH]ncc45)nc(N4CCOCC4)c3s2)CC1 [Pictilisib] (partner 1 µM)
How it was run: as §1

Row | Cell Line | relative viability ([1]; first compound 0.04 µM) | relative viability ([1]; first compound 0.1265 µM) | relative viability ([1]; first compound 0.4 µM) | relative viability ([1]; first compound 1.265 µM) | relative viability ([1]; first compound 4 µM) | relative viability ([2]; first compound 0.04 µM) | relative viability ([2]; first compound 0.1265 µM) | relative viability ([2]; first compound 0.4 µM) | relative viability ([2]; first compound 1.265 µM) | relative viability ([2]; first compound 4 µM) | relative viability ([3]; first compound 0.04 µM) | relative viability ([3]; first compound 0.1265 µM) | relative viability ([3]; first compound 0.4 µM) | relative viability ([3]; first compound 1.265 µM) | relative viability ([3]; first compound 4 µM) | relative viability ([4]; first compound 0.04 µM) | relative viability ([4]; first compound 0.1265 µM) | relative viability ([4]; first compound 0.4 µM) | relative viability ([4]; first compound 1.265 µM) | relative viability ([4]; first compound 4 µM)
1 | NCI-H661 | 0.4 | 0.389 | 0.41 | 0.381 | 0.352 | 0.951 | 0.838 | 0.877 | 0.77 | 0.565 | 0.735 | 0.587 | 0.659 | 0.711 | 0.597 | 0.403 | 0.435 | 0.481 | 0.437 | 0.415
2 | NCI-H2342 | 0.487 | 0.485 | 0.505 | 0.554 | 0.551 | 0.669 | 0.651 | 0.744 | 0.702 | 0.759 | 0.529 | 0.555 | 0.576 | 0.573 | 0.636 | – | – | – | – | –
3 | HCC-366 | 0.42 | 0.319 | 0.348 | 0.327 | 0.361 | – | – | – | – | – | 0.805 | 0.603 | 0.939 | 0.872 | 0.935 | 0.137 | 0.146 | 0.128 | 0.149 | 0.138
4 | HOP-62 | 0.453 | – | 0.516 | 0.438 | 0.425 | 0.932 | – | 0.765 | 0.798 | 0.982 | 0.783 | – | 0.851 | 0.825 | 0.907 | 0.788 | – | 0.612 | 0.804 | 1.09
5 | NCI-H2170 | 0.381 | 0.308 | 0.408 | 0.356 | 0.395 | 0.725 | 0.751 | 0.745 | 0.63 | 0.612 | 0.787 | 0.582 | 0.803 | 0.795 | 0.702 | 0.371 | 0.272 | 0.374 | 0.309 | 0.275
6 | SW 1573 | 0.299 | – | 0.481 | 0.416 | 0.317 | 0.24 | 0.356 | 0.31 | 0.215 | 0.187 | 0.592 | 0.54 | 0.605 | 0.482 | 0.55 | 0.525 | 0.364 | 0.462 | 0.521 | 0.511
7 | LU99A | 0.438 | 0.375 | 0.364 | 0.396 | 0.374 | 0.186 | 0.242 | 0.229 | 0.215 | 0.233 | 0.354 | 0.212 | 0.327 | 0.29 | 0.278 | 0.389 | 0.276 | 0.326 | 0.289 | 0.336
8 | NCI-H647 | 0.414 | 0.351 | 0.451 | 0.373 | 0.375 | 0.196 | 0.213 | 0.126 | 0.102 | 0.111 | 0.622 | 0.368 | 0.598 | 0.738 | 0.621 | 0.56 | – | 0.468 | 0.325 | 0.433
9 | A-427 | 0.547 | 0.485 | 0.535 | 0.545 | 0.494 | 0.876 | 0.952 | 0.899 | 0.942 | 0.906 | 0.524 | 0.345 | 0.503 | 0.447 | 0.469 | 0.695 | 0.749 | 0.688 | 0.658 | 0.607
10 | COR-L 105 | 0.362 | 0.417 | 0.411 | 0.414 | 0.41 | 0.748 | 0.751 | 0.808 | 0.628 | 0.686 | 0.773 | 0.559 | 0.851 | 0.61 | 0.655 | 0.424 | 0.461 | 0.462 | 0.414 | 0.378
11 | NCI-H441 | 0.233 | – | 0.215 | 0.195 | 0.226 | 0.478 | 0.346 | 0.322 | 0.393 | 0.385 | 0.685 | 0.511 | 0.414 | 0.581 | 0.734 | 0.388 | 0.359 | 0.515 | 0.6 | 0.508
12 | NCI-H2126 | 0.338 | 0.365 | 0.333 | 0.336 | 0.349 | 0.796 | 0.902 | 0.906 | 0.879 | 0.866 | 0.738 | 0.667 | 0.729 | 0.74 | 0.725 | 0.53 | 0.44 | 0.516 | 0.521 | 0.514
13 | EBC-1 | – | – | – | – | – | – | – | – | – | – | – | – | – | – | – | 0.425 | 0.342 | 0.385 | 0.41 | 0.426
14 | NCI-H1648 | 0.261 | – | 0.269 | 0.258 | 0.278 | – | – | – | – | – | 0.273 | 0.29 | 0.242 | 0.23 | 0.255 | – | – | – | – | –
15 | SW 900 | 0.515 | – | 0.586 | 0.573 | 0.498 | 0.177 | – | 0.181 | 0.177 | 0.145 | 0.555 | – | 0.548 | 0.583 | 0.483 | – | – | – | – | –
16 | NCI-H596 | – | – | – | – | – | 0.953 | 0.986 | 1.03 | 0.972 | 1.05 | 0.716 | 0.651 | 0.803 | 0.572 | 0.529 | 0.374 | 0.445 | 0.388 | 0.334 | 0.373
17 | NCI-H1563 | – | – | – | – | – | 0.497 | 0.503 | 0.556 | 0.54 | 0.553 | 0.735 | 0.796 | 0.763 | 0.701 | 0.699 | 0.62 | 0.637 | 0.638 | 0.656 | 0.669
18 | NCI-H1299 | – | – | – | – | – | – | – | – | – | – | – | – | – | – | – | 0.71 | 0.669 | 0.725 | 0.729 | 0.684
19 | NCI-H522 | 1.11 | 1.02 | 0.948 | 1 | 1.05 | 1.18 | – | 1.23 | 1.06 | 1.22 | 0.818 | 0.631 | 0.696 | 0.662 | 0.652 | – | – | – | – | –
20 | A549 | – | – | – | – | – | – | – | – | – | – | – | – | – | – | – | – | 0.524 | 0.416 | 0.411 | 0.461
21 | IA-LM | – | – | – | – | – | – | – | – | – | – | – | – | – | – | – | 0.421 | – | 0.38 | 0.387 | 0.384
22 | Calu-6 | – | – | – | – | – | – | – | – | – | – | – | – | – | – | – | 0.899 | 0.866 | 0.862 | 0.902 | 0.83
